Measurements published in US10203334B2, “Methods and compositions related to nucleic acid binding assays” (Nubad, LLC, priority 2012, dated 2019).

Experiments:
[1] = system: A-site RNA oligonucleotide (SEQ ID No. 1); type: physicochemical, E. coli
Method: The effect of A-site rRNA oligonucleotide (SEQ ID No. 1) on the absorbance spectra of fluorescein-neomycin at pH 7.1 was recorded in FIG. 7. The absorbance spectra of 3.0 mM fluorescein-neomycin in 20 mM MOPSO, 0.4 mM EDTA, 50 mM NaCl at pH 7.1 with the addition of 0 mM (112), 1.1 mM (114), 2.2 mM (116) or 3.3 mM (118) of A-site oligonucleotide (SEQ ID NO. 1), respectively is shown in FIG. 7A. Absorbance at 490 nm of fluorescein-neomycin:A-site complex as function of pH is show in FIG. 7B, with 3.0 mM fluorescein-neomycin complexed with 3.3 mM A-site oligonucleotide (SEQ ID No. 1) in 20 mM MOPSO, 0.4 mM EDTA, 50 mM NaCl at the indicated pH values.
With increasing pH, fluorescein-neomycin undergoes a transition between mono-anion and di-anion species. Fluorescein-neomycin concentration was 10 μM in 100 mM NaCl, 10 mM SC, 0.5 mM EDTA. As indicated by its absorbance spectra in FIG. 8A, the F-neo transitions from a mono-anion to a di-anion with increasing pH. FIG. 8B compares the absorbance spectra between the mono-anion and di-anion species of fluorescein neomycin. […] The absorbance peak of about 490 nm in FIGS. 8A and 8B is consistent with the phenolate species of fluorescein. The pKa for the equilibrium of the phenol and phenolate forms of F-neo (42a) was measured by evaluating the absorbance spectrum as a function of pH and shown to be 6.84. […] When monitoring the absorption spectrum in the presence of the A-site RNA (SEQ ID No. 1), a reduction in A490 consistent with the change in pKa was observed. This A490 reduction is consistent with a shift in equilibrium towards the protonated non-fluorescent form of fluorescein-neomycin upon binding to A-site. […] This shift in pKa causes a change in the fluorescence intensity of F-neo (42a).
The following equilibrium can be used to explain the probe function: FHNeo+Base=F(−)Neo+BH^+ Eq. (2) where FHNeo represents the protonated form of F-neo (42a). Upon binding to A-site RNA, F(−)Neo is destabilized by the negative potential of the RNA backbone, shifting the equilibrium towards FHNeo. Thus the binding of F-neo (42a) to RNA raises the pKa, making F-neo (42a) a weaker acid.
The local electrostatic potential (Ψ) in the major groove is given by the following Equation 3. Ψ=−[R·T·ln 10/(NA·e)]ΔpKa Eq. (3) Where ΔpKa is the difference between the free Fluorescein-neomycin and the Fluorescein-neomycin in the presence of the electrostatic environment, R is the universal gas constant, T is the absolute temperature in kelvin, NA is the Avogadro constant, and e is the elementary charge. R=8.312 J mol−1K−1, T=298.2K, NA=6.023×10^23 and e=1.602×10^−19; Ψ is expressed in mV. […] Based on this Δpka of 0.86, the electrostatic potential of the microenvironment for the fluorescein moiety in the complex is determined to be −50.9 mV.

[2] = system: hybrid duplex poly(dA).poly(rU); assay: Competition dialysis; type: binding; conditions: under these salt conditions (100-200 mM Na^+)
Source text: Disclosed is the use of fluorescent aminosugar probes such as F-neo (42a) to probe a variety of nucleic acid targets. Competition dialysis was used as a nucleic acid screening technique to illustrate the binding of F-neo (42a) to different nucleic acid structures.
Competition dialysis studies using a fluorescein-neomycin conjugate (F-neo (42a)). […] Comparative binding of F-neo (42a) to 13 different nucleic acid structures was examined which included single strand nucleic acids [poly(dT), poly(A), poly(U)], duplexes [poly(dA).poly(dT), poly(rA).poly(dT), poly(rA).poly(rU), poly(dA).poly(rU), poly(dG).poly(dC), calf thymus], triplexes [poly(dA).2poly(dT), poly(rA).2poly(rU)], i-motif (polydC) and 16S A-site rRNA (SEQ ID No. 1). The amount of F-neo (42a) bound to each nucleic acid is shown as a bar graph in FIG. 13. Because all nucleic acids are dialyzed simultaneously in the same ligand solution, the amount of bound F-neo (42a) is directly proportional to its affinity for each nucleic acid. […] 200 μL of different nucleic acids (7.5 μM per monomeric unit of each polymer) was dialyzed for 72 h with 400 mL 100 nM ligand in 6 mM Na2HPO4, 2 mM NaH2PO4, 1 mM Na2EDTA, pH 7.0 and various Na+ concentrations as indicated.
F-neo (42a) prefers to bind to 16S A-site rRNA yielding a bound ligand concentration of 85 nM in 100 mM Na^+, 50 nM in 150 mM Na^+, and 15 nM in 200 mM Na^+ is shown in FIG. 15.

`NCC1O[C@H](OC2C(O)C(OC3C(O)[C@H](N)CC(N)[C@H]3O[C@H]3OC(CN)[C@@H](O)C(O)C3N)O[C@@H]2CSCCNC(=O)CCSCC(=O)Nc2ccc(-c3c4ccc(=O)cc-4oc4cc(O)ccc34)c(C(=O)O)c2)C(N)C(O)[C@@H]1O` (some centres unmarked) [F-neo (42a), Neomycin-Fluorescein Conjugate] was tested, and the “electrostatic potential of the microenvironment for the fluorescein moiety in the complex” value ([1]; calculated from Δpka (Eq. 3)) was −50.9 mV, the Δpka ([1]; complex versus free probe) was 0.86 and the “apparent pKa of F-neo/A-site oligonucleotide complex” value ([1]; pH-dependent absorbance spectra) was 7.7. The “upward shift of the pKa upon binding of A-site” value ([1]; titration curve of A490) was “approximately one” and the bound drug [2] was 10 to 20 nM.
